± gives the expanded uncertainty stated by the source.

As usually defined, the mass density is mass per unit of volume. For orientation: refractive index means the speed of light in vacuum divided by its phase velocity in the sample.

The conditions of data set [1]: 101.33 kPa, Liquid.
Data set [2] is described as follows: refractive index (Na D-line) (dimensionless). The conditions noted are these: 101.33 kPa, Liquid, Standard Abbe refractometry.

Turning to `Cc1ccccc1` [toluene], the mass density in data set [1] (293.15 K) is recorded as 866.78 ± 0.89 kg/m3. Moreover, the refractive index in data set [2] (293.15 K) is on record as 1.496 ± 0.0007.

`Nc1ccccc1` [aniline]: the mass density in data set [1] (293.15 K) came out at 1021.72 ± 1.6 kg/m3. Also, the refractive index in data set [2] (293.15 K) came to 1.5962 ± 0.0007.

With `CCCCCCCC` [octane], the mass density in data set [1] (298.15 K) is on record as 698.49 ± 0.71 kg/m3. Moreover, the refractive index in data set [2] (298.15 K) is 1.3946 ± 0.0007.

Consider `NC1CCCCC1` [cyclohexylamine], for which the mass density in data set [1] (303.15 K) came out at 858.2 ± 0.91 kg/m3. Further, the refractive index in data set [2] (288.15 K) is reported as 1.4624 ± 0.0007.

Source of the values: the NIST ThermoML archive (doi:10.1016/j.fluid.2007.07.023).
